This note sets out measurements from US6335339B1, “Triazine antiviral compounds” (Scriptgen Pharmaceuticals, Inc., priority 1998, dated 2002).

The IC50 is the concentration at which inhibition is half-maximal.

One assay relates to HBV εRNA. The assay is described as follows: εRNA/oligonucleotide hybridization inhibition assay with rRNA competitor. The note with it: for IC50: radiolabeled εRNA, 60-fold excess rRNA competitor; for Specificity: ratio RRE+rRNA IC50/εRNA+rRNA IC50, max = inactive in RRE assay. In kind it is binding, Hepatitis B virus. The source says: One assay used in determining the activity of the compounds of the present invention is disclosed in copending U.S. patent application Ser. No. 08/709,342, filed Sep. 6, 1996, the disclosure of which is hereby incorporated herein by reference in its entirety. The assay detects the interaction between target RNA molecule and a test ligand by measuring the ligand's ability to inhibit hybridization between the RNA and a specific complementary oligonucleotide. In one embodiment, the target RNA is radiolabelled and the oligonucleotide is labeled with biotin; in this case, the extent of hybridization is determined by measuring the amount of radiolabeled RNA detected with a streptavidin/biotin-based capture system.
Concentrations of test compounds of between about 0.1 μM and about 200 μM are assayed for inhibition using radiolabeled εRNA in the absence or presence of a large excess of an unlabeled non-specific RNA competitor (such as, e.g., ribosomal RNA, rRNA). Compounds that bind εRNA non-specifically are competitively displaced by the rRNA, resulting in reduced or no inhibition of hybridization between the radiolabeled εRNA and the biotinylated oligonucleotide. Conversely, the inhibitory activity of compounds that specifically bind εRNA is not affected by the presence of the competitor rRNA.
The high throughput assays were performed in 96-well plates containing eighty drugs (5 μl, 60 μg/ml in DMSO) distributed one per well in columns 2-6 and 8-12 of the 8×12 96-well array. The remaining 16 wells in columns 1 and 7 were filled with 5 μl DMSO to serve as the control reactions. 45 μl of reaction mixture containing buffer, salts and radiolabeled target RNA were delivered on each well of the compound-containing plates to yield a 50 μl mixture containing 50 mM Tris-HCl, pH 7.5, 200 mM KCl, 5 mM MgCl2, 5 mM DTT, 6 μg/ml test compound, and 25 nM [^32 P]-labeled εRNA. The reaction was started by addition of the biotinylated oligonucleotide, 262.104 A (5 μl) to a final concentration of 100 nM. The reaction was incubated at 25° C. for 60 minutes, and then 5 μl of 0.3 mg/ml SAAP (streptavidin alkaline phosphatase conjugate, Pierce, Rockford, Ill.) was added. The reaction was incubated for an additional 30 minutes at 25° C. and filtered through 96-well format HATF nitrocellulose filters (Millipore, Bedford, Mass.) using a multiscreen vacuum manifold (Millipore, Bedford, Mass.). Subsequently, 300 μl of wash buffer (50 mM Tris-HCl, pH 7.5, 200 mM KCl) was filtered through to wash the filters. The filters were dried and supplemented with 20 μl scintillation fluid (Super Mix, Wallac Oy, Turku, Finland). The amount of hybrids formed was determined by scintillation counting of the radiolabeled εRNA retained on the filters.
The inhibitory effect of a test compound (expressed as percentage of inhibition, % Inh.) was calculated using the following formula: […]
where Ro is the average retention of hybrids in the 16 identical control reactions in columns 1 and 7 and Rx is the hybrids retained in the presence of a test drug, x.
(§1) Biotinylated oligonucleotides 262.104 A (5′-biotin-TTAGGCACAGCTTGGAGGCTTGAACAGTG-3′) and 208.92 A (5′-biotin-CGTCATTGACGCTGCGCCCA-3′) were synthetically prepared (Oligos Etc., Willsonville, Oreg.). These oligonucleotides are complementary to regions of the εRNA and RRE RNA targets, respectively.
A plasmid containing the target sequence following the bacteriophage SP6 promoter was used as a template for the synthesis of radiolabeled εRNA using [α^32 P]-UTP and SP6 RNA polymerase as described by the suppliers, e.g., Ambion, Austin, Tex., and by methods well known to those of ordinary skill in the art.
Compounds that inhibited the primary screening assay described above were individually titrated in the same assay at concentrations between 0.1 μM and 200 μM in the absence and presence of 60-fold excess rRNA as a non-specific competitor. […]

The test system of another assay is HIV derived RRE RNA. The assay is described as follows: heterologous hybridization inhibition assay with RRE RNA. In kind it is binding. The note with it: radiolabeled RRE RNA, rRNA competitor.
Excerpt: Specificity is further tested in a third assay in which the radiolabeled RNA is the HIV derived RRE RNA and the biotinylated oligonucleotide is complementary to RRE. Compounds with high specific activity for εRNA are not expected to be inhibitory in the RRE RNA based assay. The specificity of the ligand for εRNA is expressed as the ratio between the IC50 value obtained with the specific target RNA and the IC50 value obtained with a heterologous target (RRE RNA), both in the presence of competitor RNA.
as §1
Compounds that inhibited the primary screening assay described above were individually titrated in the same assay at concentrations between 0.1 μM and 200 μM in the absence and presence of 60-fold excess rRNA as a non-specific competitor. A third titration was performed in a heterologous assay using radiolabeled RRE RNA as the target and the complementary biotinylated oligonucleotide 208.92 A. From these three assays, the IC50 values and specificity for each compound was calculated.
IC50 values using rRNA competitor (from Example 1) and radiolabeled RRE RNA are shown in Table 1 for the following ligands. […] Specificity is calculated as the ratio of RRE+rRNA IC50/εRNA+rRNA IC50.

Consider `Cc1[nH]c2ccccc2c1C=NNc1nc(Nc2ccc([N+](=O)[O-])cc2)nc(N2CCCCCC2)n1` [Compound 92], for which, in the assay with HBV εRNA, the half-inhibitory concentration (IC50) came out at 2.5 µM and the Specificity came out at 4.0. Moreover, in the assay with HIV derived RRE RNA, the 50% inhibitory concentration (IC50) was determined as 10.1 µM.
For `O=[N+]([O-])c1ccc(Nc2nc(NN=Cc3ccc(-c4ccc([N+](=O)[O-])cc4)o3)nc(Nc3ccccc3)n2)cc1` [Compound 144] the same measures were 1000 µM, 0.1 and 99.9 µM.
Taken in the same sequence, the figures for `COc1ccc(C=NNc2nc(Nc3ccccc3)nc(Nc3ccc(C)cc3C)n2)cc1` [Compound 126] were 60.1 µM, 8.3 and 500 µM.
For `O=[N+]([O-])c1ccc(Nc2nc(NN=Cc3ccc(O)c([N+](=O)[O-])c3)nc(N3CCOCC3)n2)cc1` [Compound 152] the same measures were 300 µM, 0.5 and 150 µM.
For `Cc1[nH]c2ccccc2c1C=NNc1nc(NCc2ccccc2)nc(N2CCOCC2)n1` [Compound 142], in the assay with HBV εRNA, the IC50 came out at 226 µM and the Specificity stood at 5.0. Further, the IC50 in the assay with HIV derived RRE RNA is 1130 µM.
For `O=[N+]([O-])c1ccc(Nc2nc(NN=Cc3cccc(Oc4ccc([N+](=O)[O-])cc4[N+](=O)[O-])c3)nc(N3CCCCCC3)n2)cc1` [Compound 116] the same measures were 20 µM, 1.3 and 25.1 µM.
Regarding `Oc1ccc(C=NNc2nc(Nc3ccccc3)nc(N3CCCC3)n2)c(O)c1` [Compound 119], the concentration for half-maximal inhibition (IC50) with HBV εRNA was 35 µM; with HIV derived RRE RNA it was 250 µM. Further, the Specificity with HBV εRNA is on record as 7.1.
Regarding `CCCCN(CCCC)c1nc(N/N=C/C(C)=C/c2ccccc2)nc(Nc2ccc([N+](=O)[O-])cc2)n1` [Compound 31], in the assay on HBV εRNA, the half-maximal inhibitory concentration (IC50) came out at 30 µM and the Specificity result is given as “max”. Moreover, the “RRE + rRNA IC50 (μM)” value in the assay on HIV derived RRE RNA was “inactive”.
For `CC(=NNc1nc(Nc2ccc([N+](=O)[O-])cc2)nc(N2CCOCC2)n1)c1ccc([N+](=O)[O-])cc1` [Compound 118], the IC50 in the assay on HBV εRNA worked out at 25 µM; in the assay on HIV derived RRE RNA it was 50.1 µM. Besides, in the assay with HBV εRNA, the Specificity is 2.0.
With `Nc1cccc(Nc2nc(Nc3cccc(N)c3)nc(N(c3ccccc3)c3ccccc3)n2)c1` [Compound 32], in the assay on HBV εRNA, the IC50 turned out to be 32.6 µM and the Specificity result is listed as “max”. In addition, the “RRE + rRNA IC50 (μM)” value in the assay with HIV derived RRE RNA was “inactive”.
Regarding `COc1ccc([N+](=O)[O-])cc1C=NNc1nc(Nc2ccccc2)nc(N2CCCCC2)n1` [Compound 143], the IC50 in the assay on HBV εRNA was determined as 446 µM; with HIV derived RRE RNA, 223 µM. Further, the Specificity with HBV εRNA is 0.5.
As to `O=[N+]([O-])c1ccc(Nc2nc(NN=Cc3ccc(-c4ccc([N+](=O)[O-])cc4)o3)nc(N3CCOCC3)n2)cc1` [Compound 69], in the assay with HBV εRNA, the IC50 came out at 70 µM and the Specificity entry is “max”. Further, the “RRE + rRNA IC50 (μM)” value in the assay with HIV derived RRE RNA is “inactive”.
Take `O=[N+]([O-])c1ccc(Nc2nc(NN=Cc3ccc(-c4ccc([N+](=O)[O-])cc4)o3)nc(N3CCCC3)n2)cc1` [Compound 47]: in the assay on HBV εRNA, the IC50 turned out to be 25 µM and the Specificity result is “max”. Besides, in the assay with HIV derived RRE RNA, the “RRE + rRNA IC50 (μM)” value is “inactive”.
Take `O=[N+]([O-])c1ccc(Nc2nc(N/N=C/c3ccccc3)nc(N3CCCCCC3)n2)cc1` [Compound 80]: in the assay on HBV εRNA, the IC50 was determined as 200 µM and the Specificity result is reported as “max”. The “RRE + rRNA IC50 (μM)” value in the assay with HIV derived RRE RNA is “inactive”.
For `Cc1ccc(Nc2nc(NN=Cc3ccc(-c4cccc(C(=O)O)c4)o3)nc(Nc3ccc([N+](=O)[O-])cc3)n2)cc1C` [Compound 76] the same measures were 200 µM, “max” and “inactive”.
As to `CCCCN(CCCC)c1nc(NN=Cc2ccc(C=NNc3nc(Nc4ccc([N+](=O)[O-])cc4)nc(N(CCCC)CCCC)n3)cc2)nc(Nc2ccc([N+](=O)[O-])cc2)n1` [Compound 154], in the assay on HBV εRNA, the half-maximal inhibitory concentration (IC50) was determined as 1180 µM and the Specificity came to 0.3. Moreover, the IC50 in the assay with HIV derived RRE RNA stood at 300 µM.
For `CC(=NNc1nc(Nc2ccc([N+](=O)[O-])cc2)nc(N2CCCCC2)n1)c1ccccc1` [Compound 151] the same measures were 200 µM, 3.5 and 700 µM.
Taken in the same sequence, the figures for `CCN(CC)c1nc(NN=Cc2ccncc2)nc(Nc2ccc([N+](=O)[O-])cc2)n1` [Compound 115] were 75.1 µM, 1.7 and 130 µM.
In the case of `O=[N+]([O-])c1ccc(Nc2nc(NN=Cc3cc(I)ccc3O)nc(N3CCCCC3)n2)cc1` [Compound 108], in the assay with HBV εRNA, the IC50 was 16.1 µM and the Specificity turned out to be 2.5. Also, the 50% inhibitory concentration (IC50) in the assay with HIV derived RRE RNA is 40 µM.
